The supplement of paper PMC10307832

Legend:
Assay in all cases: relative viability (nuclei count vs DMSO), 5 days (fraction); higher = more cells survive
Idelalisib + Linsitinib = compound: CC[C@H](Nc1ncnc2[nH]cnc12)c1nc2cccc(F)c2c(=O)n1-c1ccccc1 [Idelalisib] + C[C@]1(O)C[C@@H](c2nc(-c3ccc4ccc(-c5ccccc5)nc4c3)c3c(N)nccn32)C1 [Linsitinib] (partner 1 µM)
Procedure, shortened: (§1)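 Lung cancer cell lines were seeded in 1536-well plates and dosed by pin tool the next day, with either a single drug or a fixed anchor-drug dose combined with five library-drug doses (not always all listed) spaced in √10 steps. Five days later, one step fixed the cells and stained their nuclei (final 0.05% Triton X-100, 1% formaldehyde, 1 ug/ml Hoechst), and nuclei were counted on 4× images. Relative viability is the nuclei count in treated wells divided by the count in vehicle wells, and each value is the median of duplicate plates.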

Idelalisib + Bortezomib = compound: CC[C@H](Nc1ncnc2[nH]cnc12)c1nc2cccc(F)c2c(=O)n1-c1ccccc1 [Idelalisib] + CC(C)C[C@H](NC(=O)[C@H](Cc1ccccc1)NC(=O)c1cnccn1)B(O)O [Bortezomib] (partner 0.002 µM)
Procedure, shortened: as §1

Idelalisib + Pictilisib = compound: CC[C@H](Nc1ncnc2[nH]cnc12)c1nc2cccc(F)c2c(=O)n1-c1ccccc1 [Idelalisib] + CS(=O)(=O)N1CCN(Cc2cc3nc(-c4cccc5[nH]ncc45)nc(N4CCOCC4)c3s2)CC1 [Pictilisib] (partner 1 µM)
Procedure, shortened: as §1

Pemetrexed + AZD7762 = compound: Nc1nc2[nH]cc(CCc3ccc(C(=O)N[C@@H](CCC(=O)O)C(=O)O)cc3)c2c(=O)[nH]1 [Pemetrexed] + NC(=O)Nc1cc(-c2cccc(F)c2)sc1C(=O)N[C@H]1CCCNC1 [AZD7762] (partner 0.2 µM)
Procedure, shortened: as §1

| Cell Line | relative viability (Idelalisib + Linsitinib; first compound 0.04 µM) | relative viability (Idelalisib + Linsitinib; first compound 0.1265 µM) | relative viability (Idelalisib + Linsitinib; first compound 0.4 µM) | relative viability (Idelalisib + Linsitinib; first compound 1.265 µM) | relative viability (Idelalisib + Linsitinib; first compound 4 µM) | relative viability (Idelalisib + Bortezomib; first compound 0.04 µM) | relative viability (Idelalisib + Bortezomib; first compound 0.1265 µM) | relative viability (Idelalisib + Bortezomib; first compound 0.4 µM) | relative viability (Idelalisib + Bortezomib; first compound 1.265 µM) | relative viability (Idelalisib + Bortezomib; first compound 4 µM) | relative viability (Idelalisib + Pictilisib; first compound 0.04 µM) | relative viability (Idelalisib + Pictilisib; first compound 0.1265 µM) | relative viability (Idelalisib + Pictilisib; first compound 0.4 µM) | relative viability (Idelalisib + Pictilisib; first compound 1.265 µM) | relative viability (Idelalisib + Pictilisib; first compound 4 µM) | relative viability (Pemetrexed + AZD7762; first compound 0.002 µM) | relative viability (Pemetrexed + AZD7762; first compound 0.006325 µM) | relative viability (Pemetrexed + AZD7762; first compound 0.02 µM) | relative viability (Pemetrexed + AZD7762; first compound 0.06325 µM) | relative viability (Pemetrexed + AZD7762; first compound 0.2 µM) |
| --- | --- | --- | --- | --- | --- | --- | --- | --- | --- | --- | --- | --- | --- | --- | --- | --- | --- | --- | --- | --- |
| NCI-H1915 | 1.19 | 1.15 | 1.04 | 1.17 | 1.07 | 0.968 | 1.03 | 0.928 | 1.04 | 0.997 | 1.22 | 0.952 | 0.881 | 1.08 | 0.9 | 0.6 | 0.638 | 0.751 | 0.599 | 0.652 |
| NCI-H647 | 0.882 | 1.19 | 0.93 | 0.805 | 0.976 | 0.998 | 1.13 | 0.813 | 0.905 | 0.737 | 0.448 | 0.452 | 0.475 | 0.377 | 0.393 | 0.488 | 0.626 | 0.435 | 0.333 | 0.143 |
| NCI-H322M | 0.971 | 0.924 | 0.801 | 0.642 | 0.692 | 1.13 | 1.34 | 1.08 | 1.16 | 1.29 | 0.546 | 0.584 | 0.444 | 0.508 | 0.549 | 0.709 | 0.634 | 0.565 | 0.637 | 0.557 |
| BEN | 0.908 | 0.935 | 0.706 | 0.931 | 0.696 | 0.985 | 0.709 | 0.756 | 0.803 | 0.732 | 0.559 | 0.517 | 0.531 | 0.609 | 0.523 | 0.746 | 0.849 | 0.765 | 0.638 | 0.648 |
| LC-2-ad | 0.966 | 0.848 | 0.805 | 0.75 | 0.719 | 1.02 | 0.971 | 0.938 | 1.11 | 0.992 | 0.534 | 0.516 | 0.415 | 0.467 | 0.417 | 0.726 | 0.816 | 0.43 | 0.276 | 0.233 |
| NCI-H1437 | 1.05 | 1.09 | 0.974 | 1.02 | 1.05 | 0.567 | 0.532 | 0.452 | 0.833 | 0.37 | 0.491 | 0.526 | 0.429 | 0.437 | 0.525 | 1.03 | 1.1 | 1.06 | 0.323 | 0.231 |
| NCI-H3122 | 0.953 | 0.952 | 1.03 | 0.935 | 0.894 | 1.03 | 1.04 | 1.09 | 1.09 | 1.04 | 0.595 | 0.594 | 0.551 | 0.669 | 0.557 | 1.04 | 0.863 | 0.966 | 0.4 | 0.276 |
| NCI-H727 | 0.318 | 0.296 | 0.281 | 0.402 | 0.267 | 0.848 | 1.21 | 0.632 | 1.22 | 0.791 | 0.385 | 0.66 | 0.312 | 0.773 | 0.476 | 0.773 | 0.573 | 0.763 | 0.523 | 0.653 |
| NCI-H1734 | 0.944 | 0.814 | 0.765 | 0.791 | 0.597 | 0.813 | 1.07 | 0.828 | 0.922 | 0.725 | 0.519 | 0.492 | 0.41 | 0.453 | 0.37 | 0.415 | 0.584 | 0.649 | 0.508 | 0.332 |
| HCC-15 | 0.909 | 0.866 | 0.857 | 0.89 | 0.873 | 0.998 | 1.11 | 0.899 | 1.1 | 1.02 | 0.762 | 0.748 | 0.662 | 0.866 | 0.728 | 1.11 | 1.13 | 1.48 | 0.903 | 0.448 |
| NCI-H2405 | 1.08 | 0.851 | 0.733 | 0.736 | 0.69 | 1.05 | 0.98 | 0.937 | 0.983 | 0.962 | 0.492 | 0.471 | 0.387 | 0.401 | 0.447 | 0.781 | 0.833 | 0.843 | 0.689 | 0.629 |
| NCI-H1993 | 0.824 | 0.673 | 0.662 | 0.756 | 0.66 | 1.14 | 1.22 | 0.852 | 0.976 | 0.771 | 0.804 | 0.8 | 0.807 | 0.896 | 0.803 | 0.546 | 0.825 | 0.779 | 0.563 | 0.481 |
| NCI-H460 | 0.834 | 0.801 | 0.624 | 0.681 | 0.56 | 0.782 | 1.03 | 1.1 | 1.23 | 1.04 | 0.363 | 0.318 | 0.315 | 0.36 | 0.359 | 0.589 | 0.707 | 0.657 | 0.194 | 0.0726 |
| NCI-H1651 | 0.982 | 0.903 | 0.789 | 0.923 | 0.714 | 1 | 0.913 | 0.939 | 1.01 | 1.02 | 0.685 | 0.574 | 0.523 | 0.762 | 0.625 | 0.412 | 0.452 | 0.51 | 0.44 | 0.455 |
| NCI-H1975 | 0.98 | 1.03 | 0.882 | 0.937 | 0.772 | 0.34 | 0.374 | 0.385 | 0.371 | 0.343 | 0.324 | 0.295 | 0.249 | 0.316 | 0.271 | – | 0.819 | 0.818 | 0.583 | 0.35 |
| NCI-H2126 | 0.71 | 0.715 | 0.685 | 0.698 | 0.625 | 1.14 | 1.15 | 1.13 | 1.14 | 1.21 | 0.525 | 0.53 | 0.404 | 0.515 | 0.521 | 0.904 | 0.954 | 1.06 | 1.01 | 0.879 |
